Test results taken from ChEMBL document CHEMBL5385886, “Design, synthesis and evaluation of nitric oxide releasing derivatives of 2,4-diaminopyrimidine as novel FAK inhibitors for intervention of metastatic triple-negative breast cancer” (Eur J Med Chem, 2023).
The source made the active and inactive calls. The calls are words filed in the database; no cut-off is given here.

Columns and labels:
[1] = system: MDA-MB-453; experiment: Antiproliferative activity against human MDA-MB-453 cells assessed as inhibition of cell proliferation incubated for 72 hrs by MTT assay; assay type: functional, cell-based; conditions: MDA-MB-453, 72 h
[2] = system: MDA-MB-231; experiment: Antiproliferative activity against human MDA-MB-231 cells assessed as inhibition of cell proliferation at 5 uM incubated for 72 hrs by MTT assay relative to control; assay type: functional
[3] = biological target: Focal adhesion kinase 1 (Homo sapiens, UniProt Q05397); experiment: Inhibition of FAK (unknown origin)
[4] = system: MDA-MB-231; experiment: Induction of NO production in human MDA-MB-231 cells at 4 uM incubated for 72 hrs by DAF-FM-DA dye based flow cytometry analysis; assay type: functional, cell-based
[5] = system: MDA-MB-157; experiment: Antiproliferative activity against human MDA-MB-157 cells assessed as inhibition of cell proliferation incubated for 72 hrs by MTT assay; assay type: functional, cell-based; conditions: MDA-MB-157, 72 h
[6] = system: MDA-MB-231; experiment: Antiproliferative activity against human MDA-MB-231 cells assessed as inhibition of cell proliferation incubated for 72 hrs by MTT assay; assay type: functional, cell-based; conditions: MDA-MB-231, 72 h

Focal adhesion kinase 1, sequence (Q05397 whole entry): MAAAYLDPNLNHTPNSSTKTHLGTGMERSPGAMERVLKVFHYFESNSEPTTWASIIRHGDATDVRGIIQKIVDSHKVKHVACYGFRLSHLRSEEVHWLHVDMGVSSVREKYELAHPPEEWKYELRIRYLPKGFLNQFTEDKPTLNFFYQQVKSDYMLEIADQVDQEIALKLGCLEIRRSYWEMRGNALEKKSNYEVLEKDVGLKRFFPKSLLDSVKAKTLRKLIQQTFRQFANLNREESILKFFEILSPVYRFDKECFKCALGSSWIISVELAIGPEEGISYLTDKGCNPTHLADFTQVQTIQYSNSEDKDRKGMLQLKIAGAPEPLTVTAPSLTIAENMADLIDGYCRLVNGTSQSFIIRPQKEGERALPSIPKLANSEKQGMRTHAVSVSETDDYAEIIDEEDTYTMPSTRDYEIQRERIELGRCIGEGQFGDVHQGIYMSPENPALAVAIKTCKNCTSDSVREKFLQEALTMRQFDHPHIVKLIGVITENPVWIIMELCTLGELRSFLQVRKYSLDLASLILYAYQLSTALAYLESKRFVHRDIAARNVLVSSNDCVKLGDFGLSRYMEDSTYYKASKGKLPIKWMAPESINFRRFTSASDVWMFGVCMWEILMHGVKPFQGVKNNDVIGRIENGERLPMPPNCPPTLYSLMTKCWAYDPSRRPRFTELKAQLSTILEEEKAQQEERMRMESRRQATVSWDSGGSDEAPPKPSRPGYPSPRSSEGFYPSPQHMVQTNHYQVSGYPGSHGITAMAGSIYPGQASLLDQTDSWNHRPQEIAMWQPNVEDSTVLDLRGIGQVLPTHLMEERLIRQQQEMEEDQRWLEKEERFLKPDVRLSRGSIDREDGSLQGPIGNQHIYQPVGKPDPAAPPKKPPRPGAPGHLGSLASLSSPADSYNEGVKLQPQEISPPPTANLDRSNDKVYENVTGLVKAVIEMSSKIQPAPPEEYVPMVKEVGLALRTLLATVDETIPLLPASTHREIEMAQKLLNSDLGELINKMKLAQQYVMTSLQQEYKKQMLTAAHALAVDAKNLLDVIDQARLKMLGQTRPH

Compound | IC50 [1] | inhibition at 5 µM [2] | IC50 [3] | Activity [4] | IC50 [5] | IC50 [6]
CNC(=O)c1ccccc1Nc1nc(Nc2ccc(CC(=O)OCC(C)COc3no[n+]([O-])c3S(=O)(=O)c3ccccc3)cc2)ncc1Cl (configuration not stated) | 255 nM | > 92% | 66 nM | Active | 275 nM | 225 nM
CNC(=O)c1ccccc1Nc1nc(Nc2ccc(CC(=O)OCCCCCCCOc3no[n+]([O-])c3S(=O)(=O)c3ccccc3)cc2)ncc1Cl | 246 nM | > 92% | 31.4 nM | Active | 188 nM | 129 nM
